Consider two compounds from patent US12703718B2, “Compositions and compounds for co-delivery of uridine and ketoleucine” (PHARMA CINQ, LLC, priority 2021, dated 2026).

Each structure is given as a SMILES string. Where two headings read alike, the source gives them in different places.

The conditions of data set [1]: oral, humans; cited from earlier work.
For data set [2] the following is noted: oral, mice; cited from earlier work.
Data set [3] relates to Female CD-1 mice treated with 3-nitropropionic acid (3-NP). As to the kind of experiment: Protective effects in 3-NP mouse model of mitochondrial dysfunction (survival, weight loss). Type of data set: in vivo. The note with it: for Survival at d 8: 3-NP 65 mg/Kg ip daily, survivors/10 mice. The procedure: A combination of uridine triacetate and ketoleucine was assessed in a model of progressive and lethal impairment of mitochondrial oxidative phosphorylation. 3-nitropropionic acid (3-NP), an irreversible inhibitor of Complex II of the mitochondrial electron transport chain. Daily administration of 3-NP results in progressive loss of mitochondrial reserve energy capacity, until the threshold for baseline energy requirements for survival is breached, resulting in mortality from both heart failure and central nervous system dysfunction.
In this study, uridine triacetate was administered as either by gavage as an oral bolus, or by incorporation into rodent chow at a concentration of 4% w/w. Similarly, ketoleucine (in the form of its sodium salt; NaKL) was administered in different groups by gavage or by dissolving it in drinking water. Sodium chloride (NaCl) was used as a control substance in some groups to account for the sodium load from the ketoleucine salt. • Chemical(s): Hydroxypropyl methyl cellulose (HPMC), cat #H3785, Lot #SLBS5701, CAS 9004-65-3, SIGMA-Aldrich. Uridine Triacetate for gavage (UTA), item, D000156, Lot #Q000001095, Almac Sciences, Uridine Triacetate in the diet (UTA), item & Lot #, D000302, 2148-070, Project #1314A0071A, recovery of material from R-104 Lot Q000003578, Almac Sciences, Sodium Chloride (NaCl), VWR, Cat #BDH9286-500G, Lot #1976C500, CAS 7647-14-5, 4-methyl-2-oxovaleric acid sodium salt (ketoLeucine: NaKL), cat #M326425, Lot #1-AWT-36-1, CAS4502-00-5, Toronto Research Chemicals, and 3-nitropropionic acid (3NP), cat #N5636, Lot #11101616, CAS 504-88-1, SIGMA-Aldrich. • Vehicle(s): UTA, NaKL, or NaCl in suspensions was prepared in 0.75% HPMC. NaCL or NaKL in the drinking water were prepared by dissolving in water. 3-NP solutions were prepared in water. • Dosing Formulation(s): Preparation: UTA was suspended in 0.75% HPMC at 50 mg/ml. NaKL will be suspended in 0.75% HPMC at 100 mg/ml, or included in the drinking water at 15.8 mg/ml. […]

The conditions of data set [4]: oral; cited from earlier work.

Regarding `O=c1ccn([C@@H]2O[C@H](CO)[C@@H](O)[C@H]2O)c(=O)[nH]1` [uridine], the bioavailability entry in data set [1] and in data set [2] was “approximately 7%” throughout.
Take `CC(=O)OC[C@H]1O[C@@H](n2ccc(=O)[nH]c2=O)[C@H](OC(C)=O)[C@@H]1OC(C)=O` [UTA, 2′,3′,5,-tri-O-acetyluridine]: the “Survival at d 8” value in data set [3] (Group 1: 4% UTA diet, NaCl in drinking water, no gavage) was 0/10; in data set [3] (Group 3: normal chow, regular water, UTA 1000 mg/Kg and NaCl by gavage 7 AM and 4 PM), 1/10. The “Protection against weight loss, comparison between groups” value in data set [3] (bolus (gavage) uridine triacetate with or without NaKL (Groups 3-5) versus 4% (w/w) uridine triacetate in chow (Groups 1 and 2)) is given as “better protection against weight loss”. Moreover, the bioavailability entry in data set [4] was “approximately 50%”.
